# Patent US5147878A, “Aminoalkoxyphenyl derivatives, process of preparation and compositions containing the same” (Sanofi, priority 1986, dated 1992)
# Counter-ions that a name gives are not always drawn.
# Key:
# isolated rat aorta = assay: Calcium inhibitory properties: contractile response to potassium-induced depolarization on isolated rat aorta; set-up: species or system isolated organ, male Wistar rats; settings: Rattus norvegicus, 1 h, read-out: % of the maximum contractional effect; for activity at 1 µM: 10^-6 M; for activity at 0.1 µM: 10^-7 M; for activity at 0.01 µM: 10^-8 M; for activity at 0.001 µM: 10^-9 M
# In short: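 Contraction is expressed as % of the pre-incubation maximum, measured after a 60 min compound exposure and a fresh K+ (100 mM KCl) depolarization. Tissue: aortic strips from male Wistar rats, 2 g tension, modified Krebs-bicarbonate, 37° C, CO2/O2 gassed.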
# [1] = tested on: epinephrine-induced increase in blood-pressure (anti-α effect); assay: Antiadrenergic properties: anti-α effect (reduction of epinephrine-induced hypertension); type: in vivo; set-up: key to anti-α effect: +: for a reduction < 50%; ++: for a reduction ≥ 50%; +++: for a reduction sub-total (almost complete reduction); settings: dog
# Procedure: (§1) The object of this test is to determine the capacity of the compounds of the invention for reducing the increase in epinephrine-induced increase in blood-pressure (anti-α effect) and the isoprenaline-induced acceleration in heart rate (anti-β effect), in dogs previously anaesthatized with pentobarbital and atropinized. For each dog, the dose of epinephrine (between 3 and 10 μg/kg) which induced a reproducible increase in the blood-pressure of approximately 133×10^2 Pa and the dose of isoprenaline (1 to 2 μg/kg) which induced a reproducible increase in the heart rate of approximately 70 beats/min. were first determined. The dose of epinephrine and of isoprenaline, determined in this manner, were injected alternately every ten minutes and, after two successive reference responses had been obtained, an amount of the test compound was administered intravenously. The percentage reduction in the hypertension induced by the test compound compared with the reference hypertension previously obtained (approximately 100 mm Hg) was recorded. In both cases, the results of the reduction in blood-pressure or in the heart rate have been expressed as follows: […]
# [2] = tested on: isoprenaline-induced acceleration in heart rate (anti-β effect); assay: Antiadrenergic properties: anti-β effect (reduction of isoprenaline-induced tachycardia); type: in vivo; set-up: key to anti-β effect: +: for a reduction < 50%; ++: for a reduction ≥ 50%; +++: for a reduction sub-total (almost complete reduction); settings: dog; for inhibition in vivo at 10 mg/kg: 10 mg/kg i.v., known compounds; for inhibition in vivo at 0.5 mg/kg: 0.5 mg/kg i.v.
# Procedure: as §1, with “the acceleration of the heart rate” for “the hypertension”, “reference tachycardia measured” for “reference hypertension”, “previously” for “previously obtained”, “(approximately 70 beats)” for “(approximately 100 mm Hg)”
# [3] = Canis lupus familiaris, iv, 10 mg/kg i.v., known compounds
# [4] = Canis lupus familiaris, iv, 0.5 mg/kg i.v.
# [5] = Canis lupus familiaris, iv, 5 mg/kg i.v.
# [6] = Canis lupus familiaris, iv, 0.1 mg/kg i.v.
compound,measurement,setting,value
"CCCCc1oc2ccccc2c1S(=O)(=O)c1ccc(OCCN(CC)CC)cc1 [Compound A, reference compound]",activity at 1 µM,isolated rat aorta,25%
same,activity at 0.1 µM,isolated rat aorta,60.3%
same,activity at 0.01 µM,isolated rat aorta,84.3%
same,inhibition in vivo at 10 mg/kg,[1]; [3],< 50%
same,inhibition in vivo at 10 mg/kg,"[2]; Canis lupus familiaris, iv",0%
"CCc1oc2ccccc2c1S(=O)(=O)c1ccc(OCCN(CC)CC)cc1 [Compound B, reference compound]",activity at 1 µM,isolated rat aorta,52.2%
same,activity at 0.1 µM,isolated rat aorta,84.9%
same,anti-α effect,"[1]; 10 mg/kg i.v., known compounds",+++
same,inhibition in vivo at 10 mg/kg,"[2]; Canis lupus familiaris, iv",< 50%
"CCCCc1cn2ccccc2c1C(=O)c1ccc(OCCCN(CCCC)CCCC)cc1 [Compound C, reference compound]",activity at 1 µM,isolated rat aorta,25%
same,activity at 0.1 µM,isolated rat aorta,74.4%
same,inhibition in vivo at 10 mg/kg,[1]; [3],< 50%
same,inhibition in vivo at 10 mg/kg,"[2]; Canis lupus familiaris, iv",0%
"CCCCN(CCCC)CCCOc1c(C)cc(C(=O)c2c(CC)cn3ccccc23)cc1C [Compound D, reference compound]",activity at 1 µM,isolated rat aorta,19.3%
same,activity at 0.1 µM,isolated rat aorta,64.7%
same,inhibition in vivo at 10 mg/kg,[1]; [3],< 50%
same,inhibition in vivo at 10 mg/kg,"[2]; Canis lupus familiaris, iv",< 50%
"CCCN(CCC)CCCOc1ccc(C(=O)c2c(CC)cn3ccccc23)cc1 [Compound E, reference compound]",activity at 1 µM,isolated rat aorta,37.9%
same,activity at 0.1 µM,isolated rat aorta,89.1%
same,inhibition in vivo at 10 mg/kg,[1]; [3],< 50%
same,inhibition in vivo at 10 mg/kg,"[2]; Canis lupus familiaris, iv",≥ 50%
"CCCCN(CCCC)CCCOc1ccc(S(=O)(=O)c2c(C(C)C)cn3ccccc23)cc1 [Ex. 1, 2-isopropyl-1-{4-[3-(di-n-butylamino)propyloxy]benzenesulphonyl}indolizineoxalate]",activity at 1 µM,isolated rat aorta,2%
same,activity at 0.1 µM,isolated rat aorta,18.9%
same,activity at 0.01 µM,isolated rat aorta,61%
same,inhibition in vivo at 0.5 mg/kg,[1]; [4],≥ 50%
same,inhibition in vivo at 0.5 mg/kg,"[2]; Canis lupus familiaris, iv",≥ 50%
"CCc1cn2ccccc2c1S(=O)(=O)c1ccc(OCCCN2CCCCC2)cc1.Cl [Ex. 2, 2-ethyl-1-[4-(3-piperidinopropyloxy)benzenesulphonyl]indolizine hydrochloride]",activity at 1 µM,isolated rat aorta,22.6%
same,activity at 0.1 µM,isolated rat aorta,79.8%
same,anti-α effect,[1]; 5 mg/kg i.v.,+++
same,inhibition in vivo at 5 mg/kg,[2]; [5],≥ 50%
"CCCCN(CCCC)CCCOc1ccc(S(=O)(=O)c2c(CC)cn3ccccc23)cc1 [Ex. 8, 2-Ethyl-1-{4-[3-(di-n-butylamino)propyloxy]benzenesulphonyl}indolizine hydrochloride]",activity at 0.1 µM,isolated rat aorta,30.9%
same,inhibition in vivo at 0.5 mg/kg,[1]; [4],≥ 50%
same,inhibition in vivo at 0.5 mg/kg,"[2]; Canis lupus familiaris, iv",< 50%
"CCCCc1cn2ccccc2c1S(=O)(=O)c1ccc(OCCCN(CCC)CCC)cc1.O=C(O)C(=O)O [Ex. 12, 2-n-Butyl-1-{4-[3-(di-n-propylamino)propyloxy]benzenesulphonyl}indolizine oxalate]",activity at 1 µM,isolated rat aorta,36.3%
same,inhibition in vivo at 5 mg/kg,[1]; [5],≥ 50%
same,anti-β effect,[2]; 5 mg/kg i.v.,+++
"CC(C)c1cn2ccccc2c1S(=O)(=O)c1ccc(OCCCN(C)C)cc1 [Ex. 14, 2-Isopropyl-1-{4-[3-(dimethylamino)propyloxy]benzenesulphonyl}indolizine]",activity at 1 µM,isolated rat aorta,32.6%
same,anti-α effect,[1]; 2.5 mg/kg i.v.,+++
same,anti-β effect,[2]; 2.5 mg/kg i.v.,+++
"CCN(CC)CCCOc1ccc(S(=O)(=O)c2c(C(C)C)cn3ccccc23)cc1 [Ex. 15, 2-Isopropyl-1-{4-[3-(diethylamino)propyloxy]benzenesulphonyl}indolizine]",activity at 1 µM,isolated rat aorta,18.4%
same,activity at 0.1 µM,isolated rat aorta,71.2%
same,anti-α effect,[1]; 2.5 mg/kg i.v.,+++
same,anti-β effect,[2]; 2.5 mg/kg i.v.,+++
"CCCN(CCC)CCCOc1ccc(S(=O)(=O)c2c(C(C)C)cn3ccccc23)cc1 [Ex. 17, 2-Isopropyl-1-{4-[3-(di-n-propylamino)propyloxy]benzenesulphonyl}indolizineoxalate]",activity at 1 µM,isolated rat aorta,7.4%
same,activity at 0.1 µM,isolated rat aorta,50.4%
same,anti-α effect,[1]; 1.3 mg/kg i.v.,+++
same,inhibition in vivo at 1.3 mg/kg,"[2]; Canis lupus familiaris, iv, 1.3 mg/kg i.v.",≥ 50%
"CCCCN(C)CCCOc1ccc(S(=O)(=O)c2c(CC)cn3ccccc23)cc1.O=C(O)C(=O)O [Ex. 20, 2-Ethyl-1-{4-[3-(N-methyl-N-butylamino)propyloxy]benzenesulphonyl}indolizine oxalate]",activity at 1 µM,isolated rat aorta,6.8%
same,activity at 0.1 µM,isolated rat aorta,60%
same,anti-α effect,[1]; 5 mg/kg i.v.,+++
same,anti-β effect,[2]; 5 mg/kg i.v.,+++
"CCCCNCCCOc1ccc(S(=O)(=O)c2c(CC)cn3ccccc23)cc1.O=C(O)C(=O)O [Ex. 21, 2-Ethyl-1-{4-[3-(n-butylamino)propyloxy]benzenesulphonyl}indolizine oxalate]",activity at 1 µM,isolated rat aorta,8.3%
same,activity at 0.1 µM,isolated rat aorta,74.7%
same,anti-α effect,[1]; 5 mg/kg i.v.,+++
same,anti-β effect,[2]; 5 mg/kg i.v.,+++
"CCCCN(CCCC)CCCCOc1ccc(S(=O)(=O)c2c(CC)cn3ccccc23)cc1 [Ex. 23, 2-Ethyl-1-{4-[4-(di-n-butylamino)butyloxy]benzenesulphonyl}indolizine hemioxalate]",activity at 0.1 µM,isolated rat aorta,24.1%
same,activity at 0.01 µM,isolated rat aorta,77.8%
same,anti-α effect,[1]; 1 mg/kg i.v.,+++
same,anti-β effect,[2]; 1 mg/kg i.v.,+++
"CCCCCN(CCCCC)CCCOc1ccc(S(=O)(=O)c2c(CC)cn3ccccc23)cc1.Cl [Ex. 26, 2-Ethyl-1-{4-[3-(di-n-pentylamino)propyloxy}benzenesulphonyl}indolizine hydrochloride]",activity at 0.1 µM,isolated rat aorta,42.9%
same,activity at 0.01 µM,isolated rat aorta,82.9%
same,anti-α effect,[1]; 0.5 mg/kg i.v.,+++
same,inhibition in vivo at 0.5 mg/kg,"[2]; Canis lupus familiaris, iv",≥ 50%
"CCc1cn2ccccc2c1S(=O)(=O)c1ccc(OCCCNCCc2ccc(OC)c(OC)c2)cc1 [Ex. 27, 2-Ethyl-1-{4-}3-(3,4-dimethoxy-β-phenethylamino)propyloxy]benzenesulphonyl}indolizine oxalate]",activity at 0.1 µM,isolated rat aorta,7.7%
same,activity at 0.01 µM,isolated rat aorta,58.9%
same,activity at 0.001 µM,isolated rat aorta,81.6%
same,anti-α effect,[1]; 1 mg/kg i.v.,+++
same,inhibition in vivo at 1 mg/kg,"[2]; Canis lupus familiaris, iv, 1 mg/kg i.v.",≥ 50%
"CCCCc1cn2ccccc2c1S(=O)(=O)c1ccc(OCCCNC(C)(C)C)cc1.O=C(O)C(=O)O [Ex. 29, 2-n-Butyl-1-{4-[3-(tert-butylamino)propyloxy]benzenesulphonyl}indolizine oxalate]",activity at 1 µM,isolated rat aorta,30.7%
same,anti-α effect,[1]; 5 mg/kg i.v.,+++
same,inhibition in vivo at 5 mg/kg,[2]; [5],≥ 50%
"COc1ccc(CCN(C)CCCCOc2ccc(S(=O)(=O)c3c(C(C)C)cn4ccccc34)cc2)cc1OC [Ex. 42, 2-Isopropyl-1-[4-{4-[N-methyl-N-(3,4-dimethoxy-β-phenethyl)amino]butyloxy]benzenesulphonyl]indolizine]",activity at 0.1 µM,isolated rat aorta,21.1%
same,activity at 0.01 µM,isolated rat aorta,53.9%
same,activity at 0.001 µM,isolated rat aorta,78.8%
same,anti-α effect,[1]; 0.1 mg/kg i.v.,+++
same,anti-β effect,[2]; 0.1 mg/kg i.v.,+++
"COc1ccc(CNCCCOc2ccc(S(=O)(=O)c3c(C(C)C)cn4ccccc34)cc2)cc1OC [Ex. 43, 2-Isopropyl-1-{4-[3-(3,4-dimethoxybenzylamino)propyloxy]benzenesulphonyl}indolizine]",activity at 0.1 µM,isolated rat aorta,9.7%
same,activity at 0.01 µM,isolated rat aorta,58.4%
same,activity at 0.001 µM,isolated rat aorta,88.7%
same,anti-α effect,[1]; 0.2 mg/kg i.v.,+++
same,anti-β effect,[2]; 0.2 mg/kg i.v.,+++
"CCCCN(CCCOc1ccc(S(=O)(=O)c2c(C(C)C)cn3ccccc23)cc1)CCc1ccc(OC)c(OC)c1 [Ex. 45, 2-Isopropyl-1-[4-{3-[N-n-butyl-N-(3,4-dimethoxy-β-phenethyl)amino]propyloxy}benzenesulphonyl]indolizine acid oxalate]",activity at 0.1 µM,isolated rat aorta,18.7%
same,activity at 0.01 µM,isolated rat aorta,62.3%
same,activity at 0.001 µM,isolated rat aorta,80.7%
same,inhibition in vivo at 0.1 mg/kg,[1]; [6],≥ 50%
same,inhibition in vivo at 0.1 mg/kg,[2]; [6],≥ 50%
"COc1cc(CCN(C)CCCOc2ccc(S(=O)(=O)c3c(C(C)C)c4ccccc4n3C)cc2)cc(OC)c1 [Ex. 146, 1-methyl-3-isopropyl-2-[4-{3-[N-methyl-N-(3,5-dimethoxy-β-phenethyl)amino]propyloxy}benzenesulphonyl]indole acid oxalate]",anti-α effect,[1]; 0.07 mg/kg i.v.,+++
same,inhibition in vivo at 0.07 mg/kg,"[2]; Canis lupus familiaris, iv, 0.07 mg/kg i.v.",≥ 50%
